Experimental data taken from patent publication US8106034B2, “Angiotensin II receptor antagonists” (Merck Sharp & Dohme Corp., priority 2008, dated 2012).

Tested on: isolated rabbit thoracic aorta preparations
Assay: Vessel relaxation in isolated rabbit thoracic aorta preparations
Details: Oryctolagus cuniculus; in vitro, rabbit aortic rings precontracted with noradrenaline, functional endothelium present
Description: The ability of the compounds to induce vasorelaxation was tested in vitro in isolated rabbit thoracic aorta preparations (Wanstall J. C. et al., Br. J. Pharmacol., 134:463-472, 2001). Male New Zealand rabbits were anaesthetized with thiopental-Na (50 mg/kg, iv), sacrificed by exsanguinations and then the thorax was opened and the aorta dissected. Aortic ring preparations (4 mm in length) were set up in physiological salt solution (PSS) at 37° C. in small organ chambers (5 ml). The composition of PSS was (mM): NaCl 130, NaHCO3 14.9, KH2PO4 1.2, MgSO4 1.2, HEPES 10, CaCl2, ascorbic acid […] and glucose 1.1 (95% O2/5% CO2; pH 7.4). Each ring was mounted under 2 g passive tension. Isometric tension was recorded with a Grass transducer (Grass FT03) attached to a BIOPAC MP150 System. Preparations were allowed to equilibrate for 1 h, and then contracted submaximally with noradrenaline (NA, 1 μM) and, when the contraction was stable, acetylcholine (ACh, 10 μM) was added. A relaxant response to ACh indicated the presence of a functional endothelium. […] When a stable precontraction was reached, a cumulative concentration-response curve to either of the vasorelaxant agents was obtained in the presence of a functional endothelium. Each arterial ring was exposed to only one combination of inhibitor and vasorelaxant. […]
Examples 3 and 5 were evaluated for vessel relaxation.

EC50 | Structure (SMILES)
18.7 µM | CCCCc1nc(Cl)c(C(=O)OCO/N=[N+](\[O-])N2CCC[C@H]2C(=O)O)n1Cc1ccc(-c2ccccc2-c2nnn[nH]2)cc1 [Example 5, O^2-({[(2-butyl-4-chloro-1-{[2′-(1H-tetrazol-5-yl)biphenyl-4-yl]methyl}-1H-imidazol-5-yl)carbonyl]oxy}methyl)1-[2S-(carboxylato)pyrrolidin-1-yl]diazen-1-ium-1,2-diolate]
5.3 µM | CCCCc1nc(Cl)c(C(=O)OCO/N=[N+](\[O-])N2CCCCC2CO)n1Cc1ccc(-c2ccccc2-c2nnn[nH]2)cc1 (centres unmarked) [Example 3, O^2-({[(2-butyl-4-chloro-1-{[2′-(1H-tetrazol-5-yl)biphenyl-4-yl]methyl}-1H-imidazol-5-yl)carbonyl]oxy}methyl)1-[2-(hydroxymethyl)piperidin-1-yl]diazen-1-ium-1,2-diolate]
